Test results taken from patent publication US11571454B2, “Anticancer peptides that synergistically enhance chemotherapeutic potency” (The Penn State Research Foundation, priority 2017, dated 2023).

Experiments:
[1] = tested on: E. coli; conditions: 24 hours, Gram Negative
[2] = Liposome disruption (OD600), normal membrane model
Description: (§1) Liposomes were prepared by extrusion techniques according to previous methods. Briefly, all liposomes were prepared in 2×concentration (5 mM). Healthy and cancer liposomal mimicking membranes were prepared with 72:23:[…] phosphatidylcholine (POPC):phosphatidylethanolamine (DOPE):phosphatidylserine (POPS) lipids, respectively. The lipids dissolved in chloroform were mixed in proper molar proportions before being evaporated under a stream of argon. The lipid film was then dried completely by lyophilization overnight. […] The extruded liposomes were then dialyzed in 3500 MWCO dialysis cassettes against water. Parallel optical density experiments were conducted measuring the absorbance at 600 nm (OD600) to track the kinetics and specificity of membrane disruption. Measurements were taken every 30 seconds for the first 10 min., followed by measurements every minute until 15 min.

[3] = Liposome disruption (OD600), cancer membrane model; conditions: OD600 and visual flocculates
Description: as §1

[4] = tested on: human umbilical vein endothelial cells (HUVEC); conditions: read-out: Healthy (IC50, μM) HUVEC; 48 hours treatment, MTT
[5] = tested on: A549 (lung carcinoma) cells; test: MTT cytotoxicity assay, A549; type: cell-based, human
Description: All cells were cultured using standard culture conditions at 37° C., 5% CO2, and 95% humidity. A549 (CCL-185), OVCAR-3 (HTB-161), T24 (HTB-4), and NCI/ADR-RES were cultured in RPMI-1640 supplemented with 10% v/v fetal bovine serum (FBS), 2 mM L-glutamine (L-Gln), 10,000 units penicillin/mL, 10 mg/mL streptomycin, and 25 μg/mL amphotericin B. HUVEC (PCS-100-010) cells were cultured in Vascular Cell Basal Media (PCS-100-030) supplemented with an Endothelial Cell Growth Kit-VEGF (PCS-100-041) and 10 μg/mL gentamycin in culture flasks coated with 0.1% gelatin by incubating at 37° C. for 15 min. NL20 (CRL-2503) cells were cultured in Ham's F12 supplemented with 1.5 g/L sodium bicarbonate, 2.7 g/L glucose, 2.0 mM L-glutamine, 0.1 mM nonessential amino acids, 0.005 mg/ml insulin, 10 ng/ml epidermal growth factor, 0.001 mg/ml transferrin, 500 ng/ml hydrocortisone and 4% fetal bovine serum, as advised by American Type Culture Collection (ATCC).
Viability was calculated by comparing to an untreated control.
All experiments were performed with n>6.
Cell viability experiments were completed n>6 in two independent experiments and analyzed using GraphPad Prism 8 to fit curves and calculate IC50 values using inhibitor vs. normalized response non-linear regression model. IC50 values are reported as mean values±standard deviation. […] Pore size frequency distribution was completed by ImageJ FIJI on 4 independent cells and n=30 pores from SEM images. UV-Vis OD600 and CD spectra are means of 5 and 3 replicates, respectively and reported as mean±standard deviation. Individual UV-Vis and CD spectra, as well as fluorescent confocal and TEM micrographs, shown are representative plots from three individual experiments. CD data is with a variance in ellipticity of 0.2 millidegrees at each wavelength. Relative fluorescence data calculated from fluorescent confocal images represents the average of 10 independent measurements±standard deviation. For spheroid volume analysis, a Kruskal-Wallis test and Dunn's multiple comparisons test was performed using GraphPad Prism 8.

[6] = tested on: OVCAR-3 cells; test: Annexin V-PI flow cytometry apoptosis assay; type: cell-based, human; conditions: IC50 of MAD1 (14 μM)
Description: OVCAR-3 cells were first seeded at 2×10^5 cells/well in 12 well plates. The cells were then allowed to adhere overnight. […] Wells were left in 5% serum media for negative and compensation controls. Cells were then trypsinized, washed in cold PBS, and centrifuged at 3,000 rpm at 15° C. for 5 min. After the supernatant was aspirated, the cells were resuspended in 100 μL of Annexin V Binding Buffer. In the dark, 5 μL of FITC Annexin V and 10 μL of Propidium Iodine solution were added to the cells, with compensation controls of a negative control with no staining, a FITC Annexin V only control, and a PI only control. The cells were then vortexed gently to combine and allowed to incubate for 15 min. at room temperature. 400 μL of Annexin V Binding Buffer was then added to each tube and stored on ice prior to analyzing by flow cytometry.
Flow cytometry was conducted on a LSRFortessa Flow Cytometer (BD Biosciences, Franklin Lakes, N.J.) using 488 nm and 532 nm lasers for FITC and PE-Texas Red signals to detect Annexin V and PI, respectively. Compensation was completed for 10,000 cells, and experiments were conducted over 20,000 cells.

Substance: H-KRWHWWRRHWVVW-NH2 [MAD1]
- MIC (μM) E. coli [1]: 25 µM
- disruption/interaction with normal (healthy) membrane liposomes [2]: did not lyse
- disruption/lysis of cancer membrane liposomes [3]: significant membrane destabilization and subsequent lysis
- IC50 [4]: > 100 µM
- IC50 ([5]; 48 hours treatment, MTT, read-out: Cancerous (IC50, μM) A549): 36.2 µM
- Therapeutic Index A549 ([5]; IC50-HUVEC/IC50-A549): 2.8
- cytotoxic activity against A549 ([5]; result in words): moderate activity
- cell necrosis (% of population) ([6]; 2 hours): 16%
- late apoptotic phenotype (% of cells) ([6]; 2 hours): 65%
- early apoptotic stage (% of cells) ([6]; 24 hours): 19%
- late apoptotic stage (% of cells) ([6]; 24 hours): 77%
